Assay results: ChEMBL document CHEMBL1914396, “Solid-state NMR analysis of interaction sites of curcumin and 42-residue amyloid β-protein fibrils” (Bioorg Med Chem, 2011)
The source made the active and inactive calls. The rule behind the calls is not given here.

Legend:
[1] = Binding affinity to [13C]-labelled at 17-21 positions of amyloid beta (1 to 42) fibrils by NMR spectroscopy
[2] = Binding affinity to [13C]-labelled amyloid beta (1 to 42) fibrils assessed as change in morphology of fibrillation at 50 uM after 1 hr using uranyl acetate dye by Transmission electron microscopy
[3] = Binding affinity to V12 of [13C]-labelled N-terminus amyloid beta (1 to 42) fibrils after 48 hrs by 2D-DARR spectroscopy
[4] = Binding affinity to A2 of [13C]-labelled N-terminus amyloid beta (1 to 42) fibrils after 48 hrs by 2D-DARR spectroscopy
[5] = Binding affinity to F4 of [13C]-labelled N-terminus amyloid beta (1 to 42) fibrils after 48 hrs by 2D-DARR spectroscopy
[6] = Binding affinity to G9 of [13C]-labelled N-terminus amyloid beta (1 to 42) fibrils after 48 hrs by 2D-DARR spectroscopy
[7] = Binding affinity to [13C]-labelled at 17-21 positions of amyloid beta (1 to 42) fibrils after 48 hrs by 2D-DARR spectroscopy

Activity [1]: Active
Activity [2]: inactive
Activity [3]: Active
Activity [4]: inactive
Activity [5]: inactive
Activity [6]: inactive
Activity [7]: Active
SMILES: COc1cc(/C=C/C(=O)CC(=O)/C=C/c2ccc(O)c(OC)c2)ccc1O
